{"source": "patent US9345247B2", "about": "“Azaindole carboxylic acid amides and azaindole thiocarboxylic acid amides for use as insecticides and acaricides” (BAYER CROPSCIENCE AG, priority 2012, dated 2016)", "key": {"Lucilia cuprina larvae": {"tested_on": "Lucilia cuprina larvae", "assay": "Lucilia cuprina test (LUCICU)", "type": "in vivo", "settings": "100 ppm, after 2 days", "procedure": "(§1) Lucilia cuprina Test (LUCICU) [table] To produce a suitable active compound formulation, 10 mg of active compound are mixed with 0.5 ml of dimethyl sulfoxide, and the concentrate is diluted with water to the desired concentration. Vessels containing horse meat treated with the active compound formulation of the desired concentration are populated with about 20 Lucilia cuprina larvae. After 2 days, the kill in % is determined 100% means that all the larvae have been killed; 0% means that none of the larvae have been killed."}, "[1]": {"tested_on": "green peach aphid (Myzus persicae)", "assay": "Myzus persicae spray test (MYZUPE)", "type": "in vivo", "settings": "100 g/ha, after 6 days", "procedure": "Myzus persicae-Spray Test (MYZUPE) [table] To produce a suitable active compound formulation, 1 part by weight of active compound is mixed with the stated amounts of solvent and emulsifier, and the concentrate is diluted with emulsifier-containing water to the desired concentration. Discs of Chinese cabbage leaves (Brassica pekinensis) infested by all stages of the green peach aphid (Myzus persicae) are sprayed with an active compound formulation of the desired concentration. After 6 days, the efficacy in % is determined 100% means that all the aphids have been killed; 0% means that none of the aphids have been killed."}, "[2]": {"assay": "log P by HPLC on reversed-phase column (C18), EEC directive 79/831 Annex V.A8", "type": "physicochemical", "settings": "HPLC, acidic range pH 2.7, 43° C.", "in_short": "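log P determined per EEC directive 79/831 Annex V.A8 by reversed-phase C18 HPLC at 43 °C, calibrated with unbranched alkan-2-ones (C3–C16) of known log P. Acidic-range determination at pH 2.7 with 0.1% formic acid acetonitrile/water, linear 10–95% acetonitrile gradient.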"}, "Ctenocephalides felis": {"tested_on": "Ctenocephalides felis", "assay": "Ctenocephalides felis; oral (CTECFE)", "type": "in vivo", "settings": "100 ppm, oral in cattle blood, after 2 days", "procedure": "Ctenocephalides felis; Oral (CTECFE)\nTo produce a suitable active compound formulation, 10 mg of active compound are mixed with 0.5 ml of dimethyl sulphoxide. A portion of the concentrate is diluted with citrated cattle blood, and the desired concentration is prepared.\nAbout 20 unfed adult fleas (Ctenocephalides felis) are placed into a chamber which is closed at the top and bottom with gauze. A metal cylinder whose bottom end is closed with parafilm is placed onto the chamber. The cylinder contains the blood/active compound preparation, which can be imbibed by the fleas through the parafilm membrane.\nAfter 2 days, the kill in % is determined 100% means that all fleas have been killed; 0% means that none of the fleas have been killed."}, "adult Musca domestica": {"tested_on": "adult Musca domestica", "assay": "Musca domestica test (MUSCDO)", "type": "in vivo", "settings": "100 ppm, after 2 days", "procedure": "as §1, with “Musca domestica” for “Lucilia cuprina”, “(MUSCDO)” for “(LUCICU)”, “a sponge” for “horse meat”, “adult Musca domestica.” for “about 20 Lucilia cuprina larvae.”, “flies” for “the larvae”, “no flies” for “none of the larvae”"}, "[3]": {"tested_on": "caterpillars of the armyworm (Spodoptera frugiperda)", "assay": "Spodoptera frugiperda spray test (SPODFR)", "type": "in vivo", "settings": "100 g/ha, spray, after 7 days", "procedure": "Spodoptera frugiperda—Spray Test (SPODFR)\n(§2) To produce a suitable active compound formulation, 1 part by weight of active compound is mixed with the stated amounts of solvent and emulsifier, and the concentrate is diluted with emulsifier-containing water to the desired concentration.\nLeaf discs of maize (Zea mays) are sprayed with an active compound formulation of the desired concentration and, after drying, populated with caterpillars of the armyworm (Spodoptera frugiperda).\nAfter 7 days, the efficacy in % is determined. 100% means that all the caterpillars have been killed; 0% means that no caterpillars have been killed.\nTo produce a suitable preparation of active compound, 1 part by weight of active compound is mixed with the stated amounts of solvent and emulsifier, and the concentrate is diluted with emulsifier-containing water to the desired concentration.\nLeaf discs of maize (Zea mays) are sprayed with an active compound preparation of the desired concentration and, after drying, populated with caterpillars of the armyworm (Spodoptera frugiperda).\nAfter the stated period of time, the effect in % is determined. 100% means that all the caterpillars have been killed; 0% means that no caterpillars have been killed."}, "[4]": {"tested_on": "larvae of the mustard beetle (Phaedon cochleariae)", "assay": "Phaedon cochleariae spray test (PHAECO)", "type": "in vivo", "settings": "100 g/ha, spray, after 7 days", "in_short": "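Chinese cabbage (Brassica pekinensis) leaf discs sprayed with compound in emulsifier-containing water at the desired concentration, dried, then infested with larvae. Efficacy scored after 7 days as % larvae killed (100% = all dead, 0% = none).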"}, "Boophilus microplus": {"tested_on": "Boophilus microplus", "assay": "Boophilus microplus test (BOOPMI injection)", "type": "in vivo", "settings": "20 μg/animal, after 7 days", "procedure": "Boophilus microplus Test (BOOPMI Injection) [table] To produce a suitable active compound formulation, 10 mg of active compound are mixed with 0.5 ml of solvent and the concentrate is diluted with solvent to the desired concentration. The active compound solution is injected into the abdomen (Boophilus microplus), and the animals are transferred into dishes and stored in a climate-controlled room. After 7 days, the efficacy in % is determined. The activity is assessed by laying of fertile eggs. 100% means that none of the ticks has laid any fertile eggs."}, "[5]": {"tested_on": "greenhouse red spider mite (Tetranychus urticae)", "assay": "Tetranychus urticae spray test, OP-resistant (TETRUR)", "type": "in vivo", "settings": "100 g/ha, spray, after 6 days", "procedure": "as §2\nDiscs of bean leaves (Phaseolus vulgaris) infested by all stages of the greenhouse red spider mite (Tetranychus urticae) are sprayed with an active compound formulation of the desired concentration.\nAfter 6 days, the efficacy in % is determined 100% means that all the spider mites have been killed; 0% means that none of the spider mites have been killed. […]"}}, "data": [{"smiles": "CCn1c(C(=O)NC(c2cccc(C(F)(F)F)c2)C(F)(F)F)cc2cc(C(=O)NC3(C#N)CC3)c(C)nc21", "note": "(stereo not drawn) [Compound 6]", "values": [{"measurement": "efficacy (kill)", "setting": "Lucilia cuprina larvae", "result": 100, "unit": "%"}, {"measurement": "efficacy", "setting": "[1]", "result": 100, "unit": "%"}, {"measurement": "log p", "setting": "[2]", "result": 3.53}, {"measurement": "efficacy (kill)", "setting": "Ctenocephalides felis", "result": 100, "unit": "%"}, {"measurement": "efficacy (kill)", "setting": "adult Musca domestica", "result": 100, "unit": "%"}, {"measurement": "efficacy", "setting": "[3]", "result": 100, "unit": "%"}, {"measurement": "efficacy", "setting": "[4]", "result": 100, "unit": "%"}, {"measurement": "efficacy (laying of fertile eggs)", "setting": "Boophilus microplus", "result": 100, "unit": "%"}, {"measurement": "efficacy", "setting": "[5]", "result": 90, "unit": "%"}]}, {"smiles": "CCn1c(C(=O)NC(c2ccc(F)c(Cl)c2)C(F)(F)F)cc2cc(C(=O)NC3(C#N)CC3)c(C)nc21", "note": "(stereo not drawn) [Compound 10]", "values": [{"measurement": "efficacy (kill)", "setting": "Lucilia cuprina larvae", "result": 100, "unit": "%"}, {"measurement": "efficacy", "setting": "[1]", "result": 90, "unit": "%"}, {"measurement": "log p", "setting": "[2]", "result": 3.51}, {"measurement": "efficacy (kill)", "setting": "Ctenocephalides felis", "result": 100, "unit": "%"}, {"measurement": "efficacy (kill)", "setting": "adult Musca domestica", "result": 100, "unit": "%"}, {"measurement": "efficacy", "setting": "[3]", "result": 100, "unit": "%"}, {"measurement": "efficacy", "setting": "[4]", "result": 100, "unit": "%"}, {"measurement": "efficacy (laying of fertile eggs)", "setting": "Boophilus microplus", "result": 100, "unit": "%"}, {"measurement": "efficacy", "setting": "[5]", "result": 100, "unit": "%"}]}, {"smiles": "CCn1c(C(=O)NC(c2cccc(C(F)(F)F)c2)C(F)(F)F)cc2cc(C(=O)NC3(C#N)CC3)c(Cl)nc21", "note": "(stereo not drawn) [Compound 11]", "values": [{"measurement": "efficacy (kill)", "setting": "Lucilia cuprina larvae", "result": 100, "unit": "%"}, {"measurement": "efficacy", "setting": "[1]", "result": 100, "unit": "%"}, {"measurement": "log p", "setting": "[2]", "result": 3.68}, {"measurement": "efficacy (kill)", "setting": "Ctenocephalides felis", "result": 100, "unit": "%"}, {"measurement": "efficacy (kill)", "setting": "adult Musca domestica", "result": 100, "unit": "%"}, {"measurement": "efficacy", "setting": "[3]", "result": 100, "unit": "%"}, {"measurement": "efficacy", "setting": "[4]", "result": 100, "unit": "%"}, {"measurement": "efficacy (laying of fertile eggs)", "setting": "Boophilus microplus", "result": 100, "unit": "%"}, {"measurement": "efficacy", "setting": "[5]", "result": 100, "unit": "%"}]}, {"smiles": "CCn1c(C(=O)NC(c2ccc(F)c(Cl)c2)C(F)(F)F)cc2cc(C(=O)NC3(C#N)CC3)c(Cl)nc21", "note": "(stereo not drawn) [Compound 26]", "values": [{"measurement": "efficacy (kill)", "setting": "Lucilia cuprina larvae", "result": 100, "unit": "%"}, {"measurement": "efficacy", "setting": "[1]", "result": 100, "unit": "%"}, {"measurement": "log p", "setting": "[2]", "result": 3.62}, {"measurement": "efficacy (kill)", "setting": "Ctenocephalides felis", "result": 100, "unit": "%"}, {"measurement": "efficacy (kill)", "setting": "adult Musca domestica", "result": 100, "unit": "%"}, {"measurement": "efficacy", "setting": "[3]", "result": 100, "unit": "%"}, {"measurement": "efficacy", "setting": "[4]", "result": 100, "unit": "%"}, {"measurement": "efficacy (laying of fertile eggs)", "setting": "Boophilus microplus", "result": 100, "unit": "%"}, {"measurement": "efficacy", "setting": "[5]", "result": 100, "unit": "%"}]}]}
